Measurements taken from article PMC8510480, “Searching Anti-Zika Virus Activity in 1H-1,2,3-Triazole Based Compounds” (Molecules, 2021).

Legend:
[1] = test system: ZIKV; assay: Screening test for anti-ZIKV activity (post-infection, compounds at CC20, TCID50 titration); assay type: cell-based, Zika virus; settings: ZIKV MOI 0.1, compound at CC20, 5 days, TCID50, Vero cells
Description: The antiviral activities of the compounds were evaluated by infecting Vero cells with ZIKV and then treating them with the testing molecules. Virus titer in the supernatants of treated wells and its comparison with the negative (cell + virus) and the positive 6-methylmercaptopurine riboside (6MMPr) controls allowed for the determination of the antiviral effect.
Figure 4 Graphic result of all triazole derivates in the screening test for anti-ZIKV activity. The screening test was made for post-infection with ZIKV MOI 0.1 and treated with CC20 values from heterocyclic compounds discovered in the cytotoxicity test. After five days, the supernatant was collected and titrated by TCID50 method. The experiment was conducted in triplicates and values are the mean and the standard deviation (SD). […]
96-well plates with 1 × 10^4 cell/well were used in this assay and prepared 24 h previously. […] The reading was performed in an inverted optical microscope AE2000, Motic (Motic, Kowloon Bay, Hong Kong) counting positives wells by the presence of cytopathic effect and the determination of the sample title was performed with the aid of the Microsoft Office Excel program (Microsoft® Office, Redmond, WA, USA).
The screening of the compounds was carried out with the CC20 value (µM) to determine the most viable compounds for more detailed antiviral tests. […] The samples were then titrated and analysed statistically.

[2] = test system: ZIKV; assay: Pre-treatment test to ZIKV in Vero cells; assay type: cell-based, Zika virus; settings: 1 h pre-treatment at 136.90, 68.45, 34.22 and 17.11 µM, then ZIKV MOI 0.1, 5 days
Description: Since compound 4b was the only one in the series with activity against ZIKV, further experiments were conducted to elucidate its mechanism of action in cells that were pre-treated. To this, cells were pre-treated with varying concentrations of compound 4b, washed, and then infected with ZIKV. The concentrations used were chosen with the aim to preserve cellular viability and, thus, the maximum concentration was the previously determined CC20 value (136.90, 68.45, 34.22 and 17.11 µM).
Figure 5 Graphic result for compound 4b in the pre-treatment test to ZIKV. Vero cells in a 48-well cell plate were treated with 4b in different concentrations and after 1 h the supernatant was discarded. Cells were washed with PBS 1X, ZIKV MOI 0.1 was inoculated, and the plate was incubated again. After five days, the supernatant was collected and titrated by TCID50 method. The experiment was conducted in triplicates and values are the mean and the SD. […]
96-well plates with 1 × 10^4 cell/well were used in this assay and prepared 24 h previously. […] The reading was performed in an inverted optical microscope AE2000, Motic (Motic, Kowloon Bay, Hong Kong) counting positives wells by the presence of cytopathic effect and the determination of the sample title was performed with the aid of the Microsoft Office Excel program (Microsoft® Office, Redmond, WA, USA). […]

[3] = Cytotoxicity test with MTT method in Vero cells; assay type: cell-based, African green monkey; settings: African green monkey, 5 days, read-out: CC50 (50% cytotoxic concentration)
Description: (§1) The cytotoxicity of compounds 1–7 to Vero cells, an epithelial cell line derived from the kidney of an African green monkey, was tested using the 3-(4,5-dimethylthiazol-2-yl)-2,5-diphenyltetrazolium bromide (MTT) method. […] Based on CC20 values, which was the maximum concentration used for antiviral screening, 3b compound was the least toxic with a value of 527.2 µM. Compounds 2a and 2b were the most cytotoxic with values of 8.87 µM and 9.89 µM, respectively. […] The results from compounds 3a, 3b and 4a, 4b ranged from 40.69 to 527.20 µM. […] The presence of phthalimide group or sugar increases the values of CC20 and CC50 (Table 2 and Supplementary Material: Figure S1).
(§2) 96-well plates with 1 × 10^4 cell/well were used in this assay and prepared 24 h previously. The compounds were diluted in a 2:1 ratio so that a maximum of 0.8% DMSO was used. The concentrations used were 800, 400, 200, 100, 50, 25 and 12.5 µM. Dilutions were added to the wells in triplicate and incubated at 37 °C and 5% CO2 atmosphere. After 5 days, the wells were emptied and a 50 µL of 1 mg/mL MTT (3-(4,5-dimethylthiazol-2-yl)-2,5-diphenyltetrazolium bromide) (Sigma-Aldrich) solution was added, and the cells were incubated for 3–4 h for formation of formazan crystals through the mitochondria of viable cells. Then, medium was removed and 100 µL DMSO was added to the wells to solubilize the formazan crystals. With the aid of an incubator Tecnal TE-420 (Tecnal Equipamentos Científicos, Piracicaba, São Paulo, Brazil), the plates were homogenized at 120 RPM at 37 °C and the optical densities were read at 570 nm on a spectrophotometer BioTekTM ELx800TM (BioTek Instruments, Winooski, VT, USA).
(§3) The determination of the CC20 and CC50 values was obtained through the linear regression analysis of the XY graph generated by the values of the concentrations used in the test and the triplicate values of the viability. In the post-infection and pre-treatment tests, ANOVA and Dunnett tests were used, considering […] as the minimum significance value. All tests were performed in GraphPad Prism v.6.0 program (GraphPad Software, Inc., San Diego, CA, USA).

[4] = test system: Vero cells; assay: Cytotoxicity test with MTT method in Vero cells; assay type: cell-based, African green monkey; settings: 5 days
Description: as §1, §2, §3

For `O=C1C(Br)=C(NCc2cn(CN3C(=O)c4ccccc4C3=O)nn2)C(=O)c2ccccc21` [Compound 4b], the “reduction in viral titer vs non-treated control” value [1] was “statistically significant reduction in viral titer”, the “change in virus titers vs negative control” value [2] was “no significant change in virus titers” and the CC50 at 5 days [3] was 330 µM. For the same molecule, the “CC20 (20% cytotoxic concentration)” value [4] was 136.90 µM.
